Measured values reported in US9636317B2, “Compositions and methods of use of phorbol esters” (priority 2007, dated 2017).
Several values for one entry are separate records, joined by “and”; a condition that tells them apart may be missing. Equal values may be shown once. Entries after “also recorded” stand apart in the source; their conditions may differ. Read-outs that look alike come from different tables or passages of the source.

Experiments:
HIV patients [1] = test: Second clinical study of HIV+ patients: symptoms and side effects (incl. case studies); format: in vivo, human
Procedure: Nine of the patients in Example III were given a second treatment of TPA. Of these nine, seven were asymptomatic at the beginning of the second trial. A tenth patient (patient #2a) who was symptomatic and had not previously been treated with TPA was added to the study. Each patient was administered a weight adjusted dosage of TPA (75 μg/sq m) in 200 ml of sterile saline intravenously over one hour. This dosage was given to each patient once a day for ten consecutive days followed by a rest period of ten days for three cycles and a total of 30 doses of TPA. Patients 5a, 6a, and 8a stopped taking anti-AIDS drugs one month prior to beginning the TPA treatment and beginning again one month after the third cycle. Patients 1-4-a, 7a, and 9a-10a continued taking anti-AIDS drugs throughout the treatment.
(§1) Results of treatment of initially symptomatic AIDS patients treated with TPA according to the protocols of Example III, IV, and V. Patients who participated in multiple studies are in some cases identified by more than one patient number. All patient identification numbers correspond to the patient numbers in Tables 1-7.

HIV = format: in vivo; conditions: for HIV: antiretroviral therapy stopped, one value per patient
Procedure: Six patients, two males and four females between the ages of 37 and 52 years of age (Patients #13-18), were treated with TPA. Four of these patients previously received TPA treatment in combination with anti-HIV drugs in the two previous clinical studies. […] All treatments were stopped three days prior to the initiation of the third clinical study and were not resumed until 60 days after completion of the TPA treatment. The resumption of the standard HIV treatments was required by local health authorities.
(§2) Each patient in the study received 150 μg of TPA in 200 ml of sterile saline by intravenous infusion over a 1.5 to 2 hour period daily for 60 days for a total administered dose of 9.0 mg. Following completion of the 60 days of TPA therapy, these patients remained under observation for an additional 60 days though the received no further treatment.
CD3, CD4 and CD8 levels in peripheral blood were quantitated prior to starting treatment, and again at 30 and 60 days using flow cytometry and the appropriate antibodies obtained from B.D. Bioscience, San Diego, Calif. Viral load was determined using conventional methods at Kuang Ann men Hospital, Beijing, China. Patients RBC, WBC, platelets and hemoglobin levels were also measured.

HIV patients [2] = test: Third clinical study of HIV+ patients: symptoms and side effects (incl. case studies); format: in vivo, human
Procedure: Six patients, two males and four females between the ages of 37 and 52 years of age (Patients #13-18), were treated with TPA. Four of these patients previously received TPA treatment in combination with anti-HIV drugs in the two previous clinical studies. The two remaining patients had never been treated with TPA, but had previously received anti-HIV drug regimens. All treatments were stopped three days prior to the initiation of the third clinical study and were not resumed until 60 days after completion of the TPA treatment. The resumption of the standard HIV treatments was required by local health authorities.
as §2, §1

[3] = system: relapsed/refractory AML, other myeloid malignancies, Hodgkin's Disease, non-Hodgkin's lymphoma, solid tumors; test: TPA Phase 1 study in relapsed/refractory malignancies; format: in vivo
From the text: An initial TPA Phase 1 study enrolled 35 patients [23 with relapsed/refractory AML, 2 with other myeloid malignancies (CML-blast crisis, myelodysplasia with excess blasts), 3 with Hodgkin's Disease, 3 with non-Hodgkin's lymphoma and 4 with solid tumors]. The majority of patients had relapsed/refractory AML. Our clinical results include one AML patient with stable disease for >5 months, who received 8 TPA infusions. In a second AML patient, a pronounced (5-fold) decline in the number of circulating blasts was seen following TPA administration. This decline in leukemic blasts persisted for 4 weeks, and the patient eventually died from a fungal infection.

lymphoma = test: Treatment of lymphoma (patient case); format: in vivo, human
From the text: Patient five was diagnosed with a re-occurrence of lymphoma and a mass of 3.5 cm in diameter. […] As of 2011, they have been in remission for three years.

terminal breast cancer = test: Treatment of breast cancer (patient case); format: in vivo, human; conditions: 35 injections, 0.18 to 0.26 mg TPA three to four times a week
From the text: Patient six was diagnosed with terminal breast cancer. They were unresponsive to either radiation or chemotherapy and the cancer had metastasized into the bone leaving their wheelchair bound.

[4] = Reduction of periorbital hyperpigmentation; format: in vivo, human; conditions: 6 women and 1 man
Procedure: 6 women and 1 man with excessive periorbital hyperpigmentation were treated with TPA.

[5] = Anti-aging properties of TPA (patient case); format: in vivo, human; conditions: 1.25 ampoules of 0.125 mg/m^2 every other day for two months
Procedure: Patient eight, person, was being treated for prostate hypertrophy with 1.25 ampoules of 0.125 mg/m^2 every other day for two months.

[6] = Treatment of myasthenia gravis (patient case); format: in vivo, human; conditions: 35 injections of TPA, concurrent dexamethasone
Procedure: Patient eleven, suffered from myasthenia gravis for more than 40 years. They were taking dexamethasone and concurrently and was injected with 1 ampoule containing 0.19 mg of TPA (0.125 mg/m^2) every other day for four weeks, then 0.24 mg of TPA (1.25×0.125 mg/m^2) every other day for 2 weeks, and 0.26 mg of TPA (1.5×0.125 mg/m^2) every other day for an additional 3 weeks for a total of 35 injections of TPA. They no longer need the dexamethasone and is now asymptomatic.

[7] = protocol of Example IV, individual patients

In the case of `CCCCCCCCCCCCCC(=O)O[C@@H]1[C@@H](C)[C@@]2(O)[C@@H](C=C(CO)C[C@]3(O)C(=O)C(C)=C[C@@H]23)[C@@H]2C(C)(C)[C@]12OC(C)=O` [TPA, 12-O-tetradecanoylphorbol-13-acetate], the “AIDS symptoms in the symptomatic patients (#9a, #2a)” value (HIV patients [1]; after three cycles of TPA) is reported as “experienced a disappearance of AIDS symptoms”, the “AIDS symptoms in the other eight patients” value (HIV patients [1]; began the study without AIDS symptoms) is reported as “symptom free at the end of the study” and the “adverse effects during TPA treatment (individual patient)” value (HIV patients [1]; protocol of Example IV) is reported as “no adverse effects; also recorded: no side effects”. For the same compound, the “symptoms after treatment with TPA (individual patient)” value (HIV patients [1]; protocol of Example IV) was “continues to have no symptoms of AIDS; also recorded: the fever and diarrhea were no longer a problem; also recorded: does not have any symptoms of AIDS; also recorded: has not had any symptoms of AIDS; also recorded: Her mental and physical condition has improved considerably”, the “duration of the increase in body temperature” value (HIV patients [1]; [7]) was “two” and the “increase in body temperature during TPA treatment” value (HIV patients [1]; [7]) was 38.5 degrees centigrade. For the same compound, the HIV (HIV; Sixty Days After TPA) was 0.038 copies/ml (All Figures in Mill and Undetectable (2×) and 0.012 copies/ml (All Figures in Mill and 0.056 copies/ml (All Figures in Mill and 0.133 copies/ml (All Figures in Mill, the HIV (HIV; Thirty Days After TPA) was 0.353 copies/ml (All Figures in Mill and 1.99 copies/ml (All Figures in Mill and 1.28 copies/ml (All Figures in Mill and 0.152 copies/ml (All Figures in Mill and 0.174 copies/ml (All Figures in Mill and 0.533 copies/ml (All Figures in Mill and the “viral load rebound after discontinuation of antiretroviral therapy” value (HIV; six patients, 150 μg TPA daily for 60 days) was “no rebound in viral levels; also recorded: no viral load rebound”. The “recurrence of AIDS symptoms” value (HIV patients [2]; 120 day observation and treatment period) was “no recurrence of AIDS symptoms”, the “side effects of TPA treatment (individual patient)” value (HIV patients [2]; protocol of Example V) was “local irritation due to a leaking needle; also recorded: a fever on one occasion; also recorded: skin irritation from a leaking needle; also recorded: no side effects” and the “AIDS symptoms during and after treatment (individual patient)” value (HIV patients [2]; protocol of Example V, antiviral therapy stopped) was “No AIDS symptoms returned; also recorded: remains symptom free; also recorded: No AIDS symptoms occurred”. The “fever during TPA infusion” value (HIV patients [2]; protocol of Example V, individual patients) was 38-38.5 °C and 38-39 °C, the “patients with grade III non-hematologic dose limiting toxicities (DLT)” value ([3]; 0.188 mg/m2 d1-5, 8-12) was 2 out of 3 and the “maximum tolerated TPA dose as a single agent” value ([3]; d1-5 and 8-12) was 0.125 mg/m2/d. For the same compound, the “duration of stable disease” value ([3]; one AML patient, 8 TPA infusions) was over 5 months, the “response of relapsed and refractory Hodgkin's disease” value ([3]; one patient) was “partial remission of a chest wall mass” and the “persistence of the decline in leukemic blasts” value ([3]; second AML patient) was 4 weeks. For the same compound, the “decline in the number of circulating blasts” value ([3]; second AML patient, following TPA administration) was 5 fold, the “lymphoma mass (3.5 cm in diameter)” value (lymphoma; 15 injections of 0.19 mg TPA every other day for 30 days) was “the mass disappeared” and the duration of remission (lymphoma; as of 2011) was “three years”. The “outcome, terminal breast cancer metastasized into the bone” value (terminal breast cancer) was “in remission and able to walk normally”, the “inflammation and hyperpigmentation in the periorbital area” value [4] was “reduced the inflammation and hyperpigmentation in the periorbital area” and the skin [5] was “their skin became softer and had fewer wrinkles”. The myasthenia gravis symptoms [6] was “asymptomatic”.
